Assay results: the supplement of paper PMC10307832

Experiments:
Experiment in all cases: relative viability (nuclei count vs DMSO), 5 days (fraction); higher = more cells survive
[1] = compound: CC1CC(=O)N(C2=CN=C(N=C2N1C3CCCC3)NC4=C(C=C(C=C4)C(=O)NC5CCN(CC5)C)OC)C [NPK76-II-72-1] + COc1cccc2cc(-c3nc([C@H]4CC[C@H](C(=O)O)CC4)n4ncnc(N)c34)[nH]c12 [OSI-027] (partner 0.5 µM)
In short: (§1)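 For relative viability, nuclei counts in treated wells were divided by those in vehicle wells. Lung cancer cell lines had been pin-tool dosed in 1536-well plates the day after seeding and cultured for 5 days, then fixed and stained in one step (final 0.05% Triton X-100, 1% formaldehyde, 1 ug/ml Hoechst) and imaged at 4×. Doses were one drug alone or a fixed anchor-drug dose plus five library-drug doses (not always all listed) in √10 steps, and values are duplicate-plate medians.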

[2] = compound: CC1CC(=O)N(C2=CN=C(N=C2N1C3CCCC3)NC4=C(C=C(C=C4)C(=O)NC5CCN(CC5)C)OC)C [NPK76-II-72-1] + CS(=O)(=O)N1CCN(Cc2cc3nc(-c4cccc5[nH]ncc45)nc(N4CCOCC4)c3s2)CC1 [Pictilisib] (partner 1 µM)
In short: as §1

[3] = compound: CC1CC(=O)N(C2=CN=C(N=C2N1C3CCCC3)NC4=C(C=C(C=C4)C(=O)NC5CCN(CC5)C)OC)C [NPK76-II-72-1] + C[C@]1(O)C[C@@H](c2nc(-c3ccc4ccc(-c5ccccc5)nc4c3)c3c(N)nccn32)C1 [Linsitinib] (partner 1 µM)
In short: as §1

[4] = compound: CC1CC(=O)N(C2=CN=C(N=C2N1C3CCCC3)NC4=C(C=C(C=C4)C(=O)NC5CCN(CC5)C)OC)C [NPK76-II-72-1] + Cc1cc(Nc2cc(N3CCN(C)CC3)nc(Sc3ccc(NC(=O)C4CC4)cc3)n2)n[nH]1 [Tozasertib] (partner 0.1 µM)
In short: as §1

Cell Line | relative viability ([1]; first compound 0.01 µM) | relative viability ([1]; first compound 0.03162 µM) | relative viability ([1]; first compound 0.1 µM) | relative viability ([1]; first compound 0.3162 µM) | relative viability ([1]; first compound 1 µM) | relative viability ([2]; first compound 0.01 µM) | relative viability ([2]; first compound 0.03162 µM) | relative viability ([2]; first compound 0.1 µM) | relative viability ([2]; first compound 0.3162 µM) | relative viability ([2]; first compound 1 µM) | relative viability ([3]; first compound 0.01 µM) | relative viability ([3]; first compound 0.03162 µM) | relative viability ([3]; first compound 0.1 µM) | relative viability ([3]; first compound 0.3162 µM) | relative viability ([3]; first compound 1 µM) | relative viability ([4]; first compound 0.01 µM) | relative viability ([4]; first compound 0.03162 µM) | relative viability ([4]; first compound 0.1 µM) | relative viability ([4]; first compound 0.3162 µM) | relative viability ([4]; first compound 1 µM)
201T | 0.65 | 0.677 | 0.703 | 0.673 | 0.474 | 0.642 | 0.618 | 0.66 | 0.7 | 0.677 | 1.01 | 0.969 | 1.06 | 1.06 | 1.09 | 0.884 | 0.948 | 0.984 | 0.939 | 0.976
A549 | – | – | – | – | – | 0.469 | 0.509 | 0.535 | 0.529 | 0.572 | 0.516 | 0.651 | 0.538 | 0.417 | 0.54 | – | – | – | – | –
A-427 | 0.497 | 0.526 | 0.452 | 0.376 | 0.434 | 0.747 | 0.796 | 0.685 | 0.632 | 0.706 | 1.1 | 1.09 | 1.15 | 1.14 | 1.13 | 0.222 | 0.23 | 0.207 | 0.192 | 0.252
ABC-1 | 0.422 | 0.418 | 0.343 | 0.458 | 0.492 | 0.638 | 0.8 | 0.483 | 0.678 | 0.743 | 0.599 | 0.558 | 0.861 | 0.703 | 0.767 | 0.185 | 0.179 | 0.172 | 0.21 | 0.155
BEN | 0.285 | 0.292 | 0.273 | 0.295 | 0.318 | 0.526 | 0.551 | 0.526 | 0.606 | 0.55 | 0.946 | 1.01 | 0.87 | 0.881 | 0.879 | 0.462 | 0.46 | 0.551 | 0.496 | 0.552
CAL-12T | 0.626 | 0.787 | 0.601 | 0.683 | 0.823 | 0.448 | 0.39 | 0.42 | – | 0.453 | 0.721 | 1.07 | 0.737 | 0.736 | 0.808 | 0.33 | 0.324 | 0.314 | 0.25 | 0.363
COR-L23 | 0.645 | 0.858 | 0.864 | 0.775 | 0.764 | 0.742 | 0.895 | 0.831 | 0.763 | 0.869 | 0.869 | 0.918 | 0.898 | 0.908 | 1.04 | 0.195 | 0.23 | 0.218 | 0.182 | 0.192
COR-L 105 | 0.644 | 0.724 | 0.718 | 0.609 | 1.09 | 0.424 | 0.467 | 0.423 | 0.411 | 0.451 | 1.01 | 0.936 | 1.09 | 0.738 | 1.13 | 0.351 | 0.348 | 0.305 | 0.407 | 0.328
Calu-6 | – | – | – | – | – | 0.894 | 1.01 | 0.953 | 0.757 | 1.05 | 0.981 | 0.912 | 0.897 | 0.948 | 0.946 | – | – | – | – | –
ChaGo-K-1 | 0.561 | 0.622 | 0.582 | 0.63 | 0.653 | 0.736 | 0.642 | 0.685 | 0.686 | 0.367 | – | – | – | – | – | 0.239 | 0.256 | 0.238 | 0.225 | 0.231
EBC-1 | – | – | – | – | – | 0.404 | 0.432 | 0.536 | 0.347 | 0.456 | 0.853 | 0.858 | 0.886 | 0.922 | 1.13 | – | – | – | – | –
EKVX | 0.66 | 0.783 | 0.501 | 0.649 | 0.821 | 0.418 | 0.437 | 0.437 | 0.388 | 0.508 | 0.935 | 1.07 | 0.985 | 0.764 | 1.18 | 0.335 | 0.339 | 0.416 | 0.379 | 0.474
EMC-BAC-2 | 0.372 | 0.351 | 0.391 | 0.361 | 0.415 | 0.488 | 0.6 | 0.558 | 0.566 | 0.544 | 0.814 | 0.848 | 0.848 | 0.747 | 0.793 | 0.298 | 0.339 | 0.296 | 0.294 | 0.316
EPLC-272H | 0.307 | – | 0.287 | 0.235 | 0.305 | 0.31 | 0.31 | 0.32 | 0.296 | 0.381 | 0.973 | 1.15 | 1.28 | 1.05 | 1.18 | 0.278 | – | 0.281 | 0.229 | 0.229
H3255 | 0.445 | 0.483 | 0.531 | 0.416 | 0.588 | 0.449 | 0.449 | 0.476 | 0.251 | 0.481 | 0.973 | 0.994 | 0.915 | 0.677 | 1.14 | 0.623 | 0.729 | 0.734 | 0.434 | 0.673
HARA | 0.393 | 0.424 | 0.545 | 0.345 | 0.67 | 0.371 | 0.368 | 0.46 | 0.26 | 0.377 | 1.03 | 0.921 | 0.929 | 0.77 | 1.03 | 0.124 | 0.0912 | 0.116 | 0.106 | 0.108
HCC-15 | 0.561 | 0.774 | 0.683 | 0.579 | 0.78 | 0.704 | 0.778 | 0.706 | 0.748 | 0.786 | 0.85 | 0.911 | 0.952 | 0.826 | 0.953 | 0.394 | 0.384 | 0.342 | 0.41 | 0.462
HCC-44 | 0.617 | 0.702 | 0.337 | 0.599 | 0.65 | 0.542 | 0.911 | 0.624 | 0.587 | 0.685 | 0.634 | 0.701 | 0.635 | 0.681 | 0.716 | 0.875 | 1.16 | 0.962 | 0.795 | 1.04
